Measured values published in US11129909B2, “Conjugate and block copolymer containing fluorescent chromophore and preparation method therefor and use thereof” (priority 2017, dated 2021).

What was measured:
NQO1 = NQO1 (Homo sapiens, UniProt P15559); assay: Enzyme detection by antibody-probe conjugate: fluorescence/FRET change with NADPH/NQO1; assay type: biochemical; settings: NADPH/NQO1 in water system, culture time of about 1 h; NAM emission 530 nm vs C1 emission 435 nm
Experimental: In a culture time of about 1 h, a change of about 20 times the FRET ratio (intensity ratio of two emission peaks) can be seen (see inset). The above results indicated the occurrence of an efficient FRET process between the C1 coumarin linkage bond and the enzymatic-produced NAM residue.

[1] = system: LS180 cells (normal CEA and lacking NQO1); assay: CLSM detection of intracellular CEA and quinone oxidoreductase, LS180 cells; assay type: cell-based; settings: LS180 cells co-cultured with conjugate
Text: (§1) Viable HepG2 cells (lacking CEA and NQO1), LS180 cells (normal CEA and lacking NQO1) and HT29 cells (normal CEA and normal NQO1) were co-cultured with QNAM-C1-ACEA antibody-probe conjugate.

[2] = system: HT29 cells (normal CEA and normal NQO1); assay: CLSM detection of intracellular CEA and quinone oxidoreductase, HT29 cells; assay type: cell-based; settings: HT29 cells co-cultured with conjugate
Text: as §1

[3] = system: HepG2 cells (lacking CEA and NQO1); assay: CLSM detection of intracellular CEA and quinone oxidoreductase, HepG2 cells; assay type: cell-based; settings: HepG2 cells co-cultured with conjugate
Text: as §1

Sequence of NQO1 (P15559 whole entry, species assumed): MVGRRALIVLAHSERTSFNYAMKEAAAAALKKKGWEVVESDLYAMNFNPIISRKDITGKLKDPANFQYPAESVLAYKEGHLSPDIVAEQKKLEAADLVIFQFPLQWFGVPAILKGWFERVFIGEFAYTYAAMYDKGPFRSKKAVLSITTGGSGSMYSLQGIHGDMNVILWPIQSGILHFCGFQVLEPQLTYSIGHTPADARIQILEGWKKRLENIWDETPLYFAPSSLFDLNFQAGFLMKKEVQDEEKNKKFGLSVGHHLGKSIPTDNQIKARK

## COC(=O)CC(SC)C(=O)Nc1cc2ccc(-c3cn(CCN4C(=O)c5cccc6c(NC(=O)CC(C)(C)C7=C(C)C(=O)C(C)=C(C)C7=O)ccc(c56)C4=O)nn3)cc2oc1=O (stereo not shown) [QNAM-C1-ACEA]
NQO1
  change of the FRET ratio (intensity ratio of two emission peaks): about 20 times
[1]
  CLSM emission of C1 coumarin (blue) and NAM (green) in cells: intermittent blue luminous points of C1 coumarin and few NAM green emission signals
[2]
  CLSM emission of C1 coumarin (blue) and NAM (green) in cells: green channel NAM emission was obviously enhanced
[3]
  CLSM emission of C1 coumarin (blue) and NAM (green) in cells: very low blue and green emission
